Experimental data taken from patent publication US20220047752A1, “BIOLOGICAL INDICATOR FOR DISINFECTION PROCESS CHALLENGE DEVICE” (3M INNOVATIVE PROPERTIES COMPANY, priority 2016, published 2022).

Tests used:
[1] = system: Aspergillus brasiliensis (ATCC 16404) spores; assay: Liquid disinfection process in AER basin, indicator device not connected to the pump; spore viability in malt extract broth; assay type: cell-based; details: 0.35% OPA (minimum effective concentration), 5 minute contact at 25 C, two rinses with purified water; approx. 1x10^6 spores on carrier; broth incubated 7 days at 30 C
Experimental: (§1) Aspergillus brasiliensis (ATCC 16404) was inoculated onto the surface of a potato dextrose agar culture and incubated 14 days at 25-30° C. After the incubation period, the surface of the plate was flooded with an aqueous solution of glycerol (10% v/v) and Tween 20 detergent (0.05% v/v). The viable fungal spore population was determined by standard plate counting method using PETRIFILM™ Rapid Yeast and Mold Count Plates (RYM) obtained from 3M Company (St. Paul, Minn.). The plates were incubated at 28-30° C. for 2-3 days. The resulting spore suspension was stored at −80 degrees C. until use.
(§2) The spore suspension was diluted in water to a concentration of approximately 10^8 spores/mL. Ten microliters (approximately 1×10^6 spores) of the diluted spore suspension was pipetted onto a circular disc (approximately 0.25 inch (6.4 mm) diameter) nonwoven carrier material (Sontara® grade 8005 nonwoven material obtained from Dupont (Candler, N.C.)). The spore-coated discs were allowed to dry for 24 hours at room temperature before assembling the indicator device.
(§3) Indicator devices were made by inserting aerosol-filter pipet tips (Part #16466-008; sterile aerosol 1000 uL pipet tips; VWR; Radnor, Pa.) into a piece of hollow tubing (Part #14-169-7C; PVC tubing, 0.25-inch (6.4 mm) inner diameter; Fisher Scientific; Waltham, Mass.), as shown in FIGS. 13-14. […]

[2] = system: Aspergillus brasiliensis (ATCC 16404) spores; assay: Flow-through disinfection, indicator device connected to the AER flow pump system; spore viability in malt extract broth; assay type: cell-based; details: 0.35% OPA at 25 C pumped through device at approx. 25 ml/min, incubated up to 7 days, duplicate devices
Experimental: as §1, §2, §3

Measured: growth of spores in malt extract broth after contact with the liquid disinfectant

O=Cc1ccccc1C=O [OPA, ortho-phthalaldehyde]
No growth: [1] | [2]; 30 seconds contact | [2]; 5 minutes contact
